Consider two molecules from paper PMC9938899, “Rice-memolin, a novel peptide derived from rice bran, improves cognitive function after oral administration in mice” (Scientific Reports, 2023).

One data set has as its system mice fed HFD. The data set can be described thus: novel object recognition test (ORT) in mice fed a high-fat diet. Type of data set: in vivo. Conditions: MLA 0.3 mg/kg i.p. with rice-memolin 1 mg/kg p.o. once a day for 3 days, n = 3–5 (Fig. 4). On the procedure: Male ddY mice (11 weeks old) were obtained from SLC (Shizuoka, Japan). They were kept in a temperature-controlled room (23 °C) on a daily 12-h light: 12-h dark cycle. After one week-acclimatization, these mice were fed MF pellets (Oriental Yeast, Tokyo, Japan) as control diet, HFD60 pellets (Oriental Yeast Co., Ltd, Japan) as high-fat diet, or HFD 60 pellets containing 0.04% rice bran protein digest (specially ordered from Oriental Yeast Co., Ltd, Japan) with free access to water for 7 days. The component of HFD60 was previously reported. Animal experiments were conducted in accordance with the Fundamental Guidelines for Proper Conduct of Animal Experiment and Related Activities in Academic Research Institutions under the jurisdiction of the Ministry of Education, Culture, Sports, Science and Technology of Japan, and were approved by the Committee on Animal Experimentation at Kyoto University, Japan. All experiments were approved by the Kyoto University Ethics Committee for Animal Research Use, permission code was R3-13. […]
Cognitive function was evaluated on Day 6 and 7 using two behavioral pharmacological tests: novel object recognition test (ORT) and object location test (OLT). […] Using the ORT, effect of donepezil, a drug currently used for the relief of cognitive deficits associated with mild to moderate Alzheimer’s diseases, was evaluated. […]

For another data set, the system named is pepsin and pancreatin. The data set can be described thus: pepsin and pancreatin digestion of VYTPG with LCMS analysis. Type of data set: in vitro ADME. Conditions: simulated gastrointestinal digestion; each enzyme treatment time 1 h; LCMS analysis (Supplemental Fig. S1). Here is the method: Pepsin and pancreatin digests of VYTPG and LCMS analysis were performed in a similar manner to previous studies (Shobako et al.) with slight modifications to simulate peptide bioavailability. Each enzyme treatment time was 1 h.

Where no end group is shown, it is not given here.

In the case of `CCN1C[C@]2(COC(=O)c3ccccc3N3C(=O)C[C@H](C)C3=O)CC[C@H](OC)[C@@]34[C@@H]5C[C@H]6[C@H](OC)[C@@H]5[C@](O)(C[C@@H]6OC)[C@@](O)([C@@H](OC)[C@H]23)[C@@H]14` [MLA, methyllycaconitine], the “effect on the rice-memolin-induced improvement in the novel ORT” value with mice fed HFD is recorded as “inhibited the effects of rice-memolin”. For VYTPG [VYTPG, Val-Tyr-Thr-Pro-Gly], the “stability to digestion by pepsin and pancreatin” value in the data set on pepsin and pancreatin was “existed even after digestion by pepsin and pancreatin”.
